For test [1], the target named is 5-hydroxytryptamine receptor 2B (Homo sapiens, UniProt P41595). The test is classed as functional, cell-based.
Test [2] concerns the target Glutamate receptor ionotropic, NMDA 1 (Rattus norvegicus, UniProt P35439).
Test [3] addresses T1, Alpha-2A adrenergic receptor (Homo sapiens, UniProt P08913).
T1 sequence (P08913 whole entry): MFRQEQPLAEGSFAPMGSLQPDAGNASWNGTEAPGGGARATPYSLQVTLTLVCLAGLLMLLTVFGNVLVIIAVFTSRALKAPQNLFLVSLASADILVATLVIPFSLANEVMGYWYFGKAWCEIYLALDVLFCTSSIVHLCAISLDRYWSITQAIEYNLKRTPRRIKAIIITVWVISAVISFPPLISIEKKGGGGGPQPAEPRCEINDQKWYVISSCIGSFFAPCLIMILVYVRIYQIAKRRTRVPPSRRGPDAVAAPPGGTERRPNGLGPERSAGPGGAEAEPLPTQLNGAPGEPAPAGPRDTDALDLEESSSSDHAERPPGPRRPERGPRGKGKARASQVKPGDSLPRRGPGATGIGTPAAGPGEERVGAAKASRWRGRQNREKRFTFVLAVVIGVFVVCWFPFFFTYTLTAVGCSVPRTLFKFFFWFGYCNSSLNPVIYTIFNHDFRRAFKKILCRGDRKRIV
Format: functional, cell-based.

In test [4] the target is T2, Neuropeptide Y receptor type 1 (Homo sapiens, UniProt P25929).
T2 sequence (P25929 whole entry): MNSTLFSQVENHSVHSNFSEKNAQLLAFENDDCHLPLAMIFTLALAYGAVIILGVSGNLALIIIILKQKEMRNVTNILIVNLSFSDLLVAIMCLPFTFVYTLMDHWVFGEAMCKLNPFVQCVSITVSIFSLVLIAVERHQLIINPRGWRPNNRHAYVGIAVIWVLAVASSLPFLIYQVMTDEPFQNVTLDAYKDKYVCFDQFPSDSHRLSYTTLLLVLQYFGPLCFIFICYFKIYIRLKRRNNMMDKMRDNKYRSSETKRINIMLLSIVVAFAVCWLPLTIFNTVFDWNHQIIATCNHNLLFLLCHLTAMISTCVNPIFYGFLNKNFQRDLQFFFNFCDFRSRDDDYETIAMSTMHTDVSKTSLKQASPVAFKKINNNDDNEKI

The target of test [5] is Sodium-dependent serotonin transporter (Homo sapiens, UniProt P31645).
Sodium-dependent serotonin transporter, sequence (P31645 whole entry): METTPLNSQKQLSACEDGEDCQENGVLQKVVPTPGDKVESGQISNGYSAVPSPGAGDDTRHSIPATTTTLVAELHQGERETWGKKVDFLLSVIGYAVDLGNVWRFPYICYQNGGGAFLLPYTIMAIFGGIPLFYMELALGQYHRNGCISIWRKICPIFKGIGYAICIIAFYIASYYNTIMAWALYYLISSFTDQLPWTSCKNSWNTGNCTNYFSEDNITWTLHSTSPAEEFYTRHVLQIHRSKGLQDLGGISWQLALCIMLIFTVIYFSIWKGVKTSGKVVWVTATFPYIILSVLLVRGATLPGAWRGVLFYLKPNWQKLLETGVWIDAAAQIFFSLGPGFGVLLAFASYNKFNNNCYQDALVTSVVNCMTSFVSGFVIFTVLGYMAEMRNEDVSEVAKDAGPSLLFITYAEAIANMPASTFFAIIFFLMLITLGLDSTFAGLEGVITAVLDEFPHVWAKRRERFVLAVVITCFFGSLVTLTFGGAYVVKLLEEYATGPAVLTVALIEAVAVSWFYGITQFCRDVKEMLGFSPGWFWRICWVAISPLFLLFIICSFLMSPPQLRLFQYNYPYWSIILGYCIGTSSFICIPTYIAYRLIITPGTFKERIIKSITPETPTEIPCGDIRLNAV
In the next test the target is T3, Progesterone receptor (Homo sapiens, UniProt P06401).
T3 sequence (P06401 whole entry): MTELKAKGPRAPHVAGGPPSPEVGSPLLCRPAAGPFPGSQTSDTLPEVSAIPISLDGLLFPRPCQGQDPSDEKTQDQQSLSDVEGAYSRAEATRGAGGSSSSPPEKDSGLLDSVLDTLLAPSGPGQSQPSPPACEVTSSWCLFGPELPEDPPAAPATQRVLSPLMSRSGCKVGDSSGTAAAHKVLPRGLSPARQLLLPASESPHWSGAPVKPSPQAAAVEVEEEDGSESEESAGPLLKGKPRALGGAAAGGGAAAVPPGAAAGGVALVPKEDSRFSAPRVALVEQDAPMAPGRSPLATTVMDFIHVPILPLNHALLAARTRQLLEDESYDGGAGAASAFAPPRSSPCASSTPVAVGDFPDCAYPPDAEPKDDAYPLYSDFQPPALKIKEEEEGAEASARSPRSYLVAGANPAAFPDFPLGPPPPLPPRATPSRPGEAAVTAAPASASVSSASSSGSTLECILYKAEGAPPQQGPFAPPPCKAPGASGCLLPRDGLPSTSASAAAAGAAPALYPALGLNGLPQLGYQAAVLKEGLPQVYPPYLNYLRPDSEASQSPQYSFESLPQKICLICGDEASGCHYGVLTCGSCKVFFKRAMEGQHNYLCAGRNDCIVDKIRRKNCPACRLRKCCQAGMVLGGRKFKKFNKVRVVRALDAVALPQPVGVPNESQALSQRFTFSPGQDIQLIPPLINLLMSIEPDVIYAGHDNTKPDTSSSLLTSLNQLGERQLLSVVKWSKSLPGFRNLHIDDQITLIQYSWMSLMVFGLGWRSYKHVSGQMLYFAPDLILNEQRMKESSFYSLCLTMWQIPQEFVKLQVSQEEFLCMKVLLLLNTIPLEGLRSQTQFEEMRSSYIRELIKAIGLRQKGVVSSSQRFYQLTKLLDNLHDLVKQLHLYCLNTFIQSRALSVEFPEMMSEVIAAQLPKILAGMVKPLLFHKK
The test is classed as functional.

Test [6] addresses T4, Equilibrative nucleoside transporter 1 (Homo sapiens, UniProt Q99808).
T4 sequence (Q99808 whole entry): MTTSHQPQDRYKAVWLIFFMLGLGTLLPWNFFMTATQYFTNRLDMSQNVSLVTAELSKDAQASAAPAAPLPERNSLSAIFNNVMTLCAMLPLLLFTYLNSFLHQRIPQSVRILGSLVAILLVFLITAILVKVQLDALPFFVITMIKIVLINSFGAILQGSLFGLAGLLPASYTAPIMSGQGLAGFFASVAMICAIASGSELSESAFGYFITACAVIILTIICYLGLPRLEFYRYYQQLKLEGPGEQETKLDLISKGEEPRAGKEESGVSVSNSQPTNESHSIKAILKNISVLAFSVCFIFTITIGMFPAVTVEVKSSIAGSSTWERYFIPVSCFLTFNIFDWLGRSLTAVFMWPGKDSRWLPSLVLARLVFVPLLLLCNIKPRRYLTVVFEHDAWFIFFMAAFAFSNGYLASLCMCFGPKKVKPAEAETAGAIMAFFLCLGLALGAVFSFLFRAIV

Where a SMILES comes first, the peptide text is derived from it.

The text below walks through data of ChEMBL document CHEMBL5291721, “A preclinical secondary pharmacology resource illuminates target-adverse drug reaction associations of marketed drugs” (Nat Commun, 2023).

The AC50 is the concentration giving half of the maximal activity seen. Read a low AC50 as greater potency.
Further: assay procedure not described here.

5-hydroxytryptamine receptor 2B, sequence (P41595 whole entry): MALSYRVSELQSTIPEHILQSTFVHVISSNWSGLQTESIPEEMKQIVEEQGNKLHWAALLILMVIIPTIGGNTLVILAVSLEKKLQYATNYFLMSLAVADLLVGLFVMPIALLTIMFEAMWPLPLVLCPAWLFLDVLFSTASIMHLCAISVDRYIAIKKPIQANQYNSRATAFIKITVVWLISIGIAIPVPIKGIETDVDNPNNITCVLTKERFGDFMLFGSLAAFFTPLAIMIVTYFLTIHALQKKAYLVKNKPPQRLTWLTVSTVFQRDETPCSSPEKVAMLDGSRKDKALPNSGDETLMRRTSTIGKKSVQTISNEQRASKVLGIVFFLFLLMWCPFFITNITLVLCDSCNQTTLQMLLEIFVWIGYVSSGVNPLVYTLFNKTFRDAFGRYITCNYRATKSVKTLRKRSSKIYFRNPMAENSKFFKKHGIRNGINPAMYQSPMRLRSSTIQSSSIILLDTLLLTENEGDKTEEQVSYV

Turning to `O=C(O)c1ccc2nc(-c3cc(Cl)cc(Cl)c3)oc2c1`, the AC50 (in test [1]; in test [2]; in test [3]; in test [4]; in test [5]; at Progesterone receptor) was more than 30 µM in each case. For the same compound, the AC50 in test [6] is more than 30 µM.
Turning to `NS(=O)(=O)c1ccc(N2CCCCS2(=O)=O)cc1`, the AC50 (in test [1]; in test [2]; in test [3]; in test [4]; in test [5]; on Progesterone receptor) was more than 30 µM each time.
`OCC(O)COc1ccc(Cl)cc1` (stereo not drawn): the AC50 (in test [1]; in test [2]; in test [3]; in test [4]; in test [5]; on Progesterone receptor) was more than 10 µM each time. The compound also returned an AC50 in test [6] of more than 10 µM.
Consider `O=C(O[C@H]1C[N+]2(CCCOc3ccccc3)CCC1CC2)C(O)(c1cccs1)c1cccs1` [ACLIDINIUM BROMIDE], for which the AC50 was more than 10 µM in test [2], more than 30 µM in test [4], more than 10 µM in test [5] and more than 30 µM in test [6].
As for `C[C@H](N)C(=O)N[C@@H](CCC(N)=O)C(=O)O` [ALANYL GLUTAMINE] (H-Ala-Gln-OH), the AC50 (in test [1]; in test [2]; in test [3]; in test [4]; in test [5]; at Progesterone receptor) was more than 30 µM each time. Further, in test [6], the AC50 is more than 30 µM.
As to `COc1cc(N)cn[n+]1-c1ccccc1` [AMEZINIUM METILSULFATE], the concentration at half-maximal activity (AC50) in test [1] is more than 30 µM; in test [2], more than 30 µM; in test [3] it was more than 30 µM; in test [4] it was more than 30 µM; in test [5] it was 17 µM; at Progesterone receptor it was more than 30 µM. For the same compound, the AC50 in test [6] is more than 30 µM.
For `Oc1cc(O)c2c(c1)O[C@H](c1ccc(O)c(O)c1)[C@@H](O)C2` [CIANIDANOL], the AC50 was more than 10 µM in test [1]; more than 10 µM in test [2]; more than 10 µM in test [3]; more than 30 µM in test [4]; more than 30 µM in test [5]; more than 30 µM in test [6].
As for `CCN(CC)C(C)C(=O)c1ccccc1` (stereo not drawn) [DIETHYLPROPION], the AC50 is more than 10 µM in test [1]; more than 10 µM in test [2]; more than 10 µM in test [3]; more than 30 µM in test [4]; more than 30 µM in test [5]; more than 30 µM in test [6].
Turning to `Cc1ccc(-c2ncc(Cl)cc2-c2ccc(S(C)(=O)=O)cc2)cn1` [ETORICOXIB], the AC50 in test [1] was more than 10 µM; in test [2], more than 10 µM; in test [3] it was more than 10 µM; in test [4] it was more than 10 µM; in test [5], more than 10 µM; in test [6], more than 30 µM.
As for `Cc1cnc(Nc2ccc(OCCN3CCCC3)cc2)nc1Nc1cccc(S(=O)(=O)NC(C)(C)C)c1` [FEDRATINIB], the AC50 is more than 10 µM in test [1]; more than 10 µM in test [2]; more than 10 µM in test [3]; more than 30 µM in test [4]; 0.732 µM in test [5]; more than 30 µM in test [6].
For the compound `CN1C(=O)CN=C(c2ccccc2F)c2cc([N+](=O)[O-])ccc21` [FLUNITRAZEPAM], the AC50 in test [1] was more than 10 µM; in test [2], more than 10 µM; in test [3] it was more than 10 µM; in test [4], more than 30 µM; in test [5], more than 10 µM; in test [6], more than 30 µM.
For `COc1ccc2c3c1O[C@H]1C(=O)CC[C@H]4[C@@H](C2)N(C)CC[C@]314` [HYDROCODONE], the AC50 in test [1] is more than 10 µM; in test [2] it was more than 10 µM; in test [3], more than 10 µM; in test [4], more than 30 µM; in test [5], more than 10 µM; in test [6], more than 30 µM.
For `CC(=O)N1CCN(c2ccc(OCC3COC(Cn4ccnc4)(c4ccc(Cl)cc4Cl)O3)cc2)CC1` (stereo not drawn) [KETOCONAZOLE], the AC50 in test [1] was more than 10 µM; in test [2], more than 10 µM; in test [3], more than 10 µM; in test [4], more than 10 µM; at Progesterone receptor, more than 10 µM; in test [6] it was 35.2 µM.
`CN1CCC(=C2c3ccccc3CC(=O)c3sccc32)CC1` [KETOTIFEN]: the AC50 (in test [1]; in test [2]; in test [3]; in test [4]; at Progesterone receptor; in test [6]) was more than 10 µM throughout.
Regarding `CC(C)(C)NCC(O)COc1cccc2c1CC(O)C(O)C2` (stereo not drawn) [NADOLOL], the AC50 (in test [1]; in test [2]; in test [3]; in test [4]; at Progesterone receptor; in test [6]) was more than 10 µM in each case.
With `CN1CCCN=C1/C=C/c1cccc(O)c1` [OXANTEL], the AC50 (in test [1]; in test [2]; in test [3]; in test [4]; in test [5]; at Progesterone receptor) was more than 30 µM in each case.
`CC1NCCOC1c1ccccc1` (stereo not drawn) [PHENMETRAZINE]: the AC50 was more than 10 µM in test [1]; more than 10 µM in test [2]; more than 10 µM in test [3]; more than 30 µM in test [4]; more than 30 µM in test [5]; more than 30 µM in test [6].
With `CC(C)(N)Cc1ccccc1` [PHENTERMINE], the AC50 was more than 10 µM in test [1]; more than 10 µM in test [2]; more than 10 µM in test [3]; more than 30 µM in test [4]; more than 30 µM in test [5]; more than 30 µM in test [6].
As for `Nc1ccc(S(=O)(=O)Nc2ncccn2)cc1` [SULFADIAZINE], the AC50 (in test [1]; in test [2]; in test [3]; in test [4]; at Progesterone receptor; in test [6]) was more than 10 µM in each case.
On to `Cc1cccc(Nc2ccncc2S(=O)(=O)NC(=O)NC(C)C)c1` [TORSEMIDE], for which the AC50 was more than 10 µM in test [1]; more than 10 µM in test [2]; more than 10 µM in test [3]; more than 30 µM in test [4]; more than 10 µM on Progesterone receptor; more than 10 µM in test [6].
With `CCN(C(C)=O)c1cccc(-c2ccnc3c(C#N)cnn23)c1` [ZALEPLON], the AC50 in test [1] was more than 10 µM; in test [2], more than 10 µM; in test [3], more than 10 µM; in test [4], more than 30 µM; at Progesterone receptor, more than 30 µM; in test [6], more than 30 µM.
